Among the data in patent publication US10611750B2, “Tetrahydroquinoline compositions as bet bromodomain inhibitors” (FORMA Therapeutics, Inc., priority 2013, dated 2020) are IC50 values, retold here.

Assay [1] deals with T1, BRD4 Bromodomain 2 (BRD4 BD2) (Homo sapiens, UniProt O60885).
T1 construct: 333-460 were cloned, expressed, and purified to homogeneity
Put plainly: AlphaScreen binding assay, BRD4 BD2. The note with it: His-tagged BRD4 BD2 100 nM, biotinylated H4 (1-21) K5/8/12/16 tetra-acetylated peptide 100 nM, compounds listed under IC50 range headings. How it is done: The binding of Example compounds to BRD4 Bromodomain 1 and BRD4 Bromodomain 2 was assessed using 384-well AlphaScreen assay technology. His-epitope tagged BRD4 BD144-168 and BRD4 BD2333-460 were cloned, expressed, and purified to homogeneity. BRD4 BD1 and BRD4 BD2 binding and inhibition was assessed by monitoring the engagement of biotinylated Histone H4 (1-21) K5/8/12/16 tetra-acetylated peptide with the targets using the AlphaScreen technology (PerkinElmer). Specifically, in a 384-well black or white flat bottom plate, BRD4 BD1 (50 nM final) or BRD4 BD2 (100 nM final) was combined with peptide (50 nM final for BD1 or 100 nM final for BD2) in 50 mM HEPES (pH 7.3), 100 mM NaCl, 0.1% (w/v) BSA, and 0.01% (w/v) Triton X-100 either in the presence of DMSO (final 1.25% DMSO) or compound dilution series in DMSO. Alpha streptavidin donor beads and Nickel-chelate acceptor beads were added to a final concentration of 10 μg/ml each. After a minimum of 1 hour equilibration, plates were read on a BMG PHERAstar FS multi-label reader (BMG LabTech). The half maximal inhibitory concentration (IC50) values were calculated using IDBS Activity Base software with a four parameter logistic curve fit by the equation y=A+((B−A)/(1+((C/x)^D))), wherein A denotes the bottom plateau of the curve, B denotes the top plateau of the curve, C denotes the x value at the middle of the curve, D denotes the slope factor, x denotes the original known x values, and y denotes the original known y values. Data was fitted using the Levenburg Marquardt algorithm.

In assay [2] the target is T2, BRD4 Bromodomain 1 (BRD4 BD1) (Homo sapiens, UniProt O60885).
T2 construct: 44-168 and BRD4 BD2
Put plainly: AlphaScreen binding assay, BRD4 BD1. The following applies: His-tagged BRD4 BD1 50 nM, biotinylated H4 (1-21) K5/8/12/16 tetra-acetylated peptide 50 nM, compounds listed under IC50 range headings. In outline:
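Compound dilution series were mixed with His-tagged BRD4 bromodomain and biotinylated tetra-acetylated H4 (1-21) peptide at pH 7.3 (BD1 and peptide at 50 nM, BD2 and peptide at 100 nM). Donor and acceptor beads were then added, and plates were equilibrated at least 1 h before reading. IC50 values were fitted with a four-parameter logistic model.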

Regarding `CC(=O)N1c2ccc(-c3ccc(S(C)(=O)=O)cc3)c(Oc3ccccc3)c2CCC1C` (racemic) [I-111, rac-1-(2-methyl-6-(4-(methylsulfonyl)phenyl)-5-phenoxy-3,4-dihydroquinolin-1(2H)-yl)ethanone], the results for the IC50 in assay [1] and in assay [2] were less than 50 nM and 1 to 10 µM, respectively.
Turning to `CC(=O)N1c2ccc(-c3cnn(C4COC4)c3)c(OCc3ccno3)c2CC[C@@H]1C` [I-379], the IC50 in assay [1] was in the range of 50 to 500 nM; in assay [2] it was 1 to 10 µM.
For `CC(=O)N1c2ccc(-c3cnn(C4CC4)c3)c(OCCN(C)C)c2CC[C@@H]1C` [I-386], in that order: not below 500 nM and 1 to 10 µM.
For `CCCOc1c(-c2cccc(C(=O)N3CCOCC3)c2)ccc2c1CC[C@H](C)N2C(C)=O` [I-488], in that order: 50 to 500 nM and 1 to 10 µM.
Take `CC(=O)N1c2ccc(-c3cnn(CC(C)(C)O)c3)c(OCC(=O)N(C)C)c2CC[C@@H]1C` [I-418]: the concentration for half-maximal inhibition (IC50) lay in the range of 50 to 500 nM in assay [1] and 1 to 10 µM in assay [2].
In the same order, the values of `CC(=O)N1c2ccc(-c3cnn(CCS(C)(=O)=O)c3)c(OCC(=O)N3CCCC3)c2CC[C@@H]1C` [I-428] are 50 to 500 nM and 1 to 10 µM.
In the same order, the values of `CC(=O)N1c2ccc(-c3cnn(C4CC4)c3)c(OCCC(F)(F)F)c2CC[C@@H]1C` [I-41, (S)-1-(6-(1-cyclopropyl-1H-pyrazol-4-yl)-2-methyl-5-(3,3,3-trifluoropropoxy)-3,4-dihydroquinolin-1 (2H)-yl)ethanone] are 50 to 500 nM and 1 to 10 µM.
For `COC(=O)N1c2ccc(-c3cnn(C4CC4)c3)c(OC(CF)CF)c2CC[C@@H]1C` [I-15, (S)-methyl 6-(1-cyclopropyl-1H-pyrazol-4-yl)-5-(1,3-difluoropropan-2-yloxy)-2-methyl-3,4-dihydroquinoline-1(2H)-carboxylate], in that order: 50 to 500 nM and 1 to 10 µM.
Regarding `CNC(=O)COc1c(-c2cnn(C3COC3)c2)ccc2c1CC[C@H](C)N2C(C)=O` [I-378], the IC50 in assay [1] was in the range of 50 to 500 nM; in assay [2] it was 1 to 10 µM.
In the same order, the values of `CC(=O)N1c2ccc(-c3cnn(C4CC4)c3)c(Oc3nccc(C(F)(F)F)n3)c2CC[C@@H]1C` [I-85, (S)-1-(6-(1-cyclopropyl-1H-pyrazol-4-yl)-2-methyl-5-(4-(trifluoromethyl)pyrimidin-2-yloxy)-3,4-dihydroquinolin-1 (2H)-yl)ethanone] are 50 to 500 nM and 1 to 10 µM.
On to `COC(=O)N1c2ccc(-c3cnn(C4CC4)c3)c(OCC3(F)COC3)c2CC[C@@H]1C` [I-65, (S)-methyl 6-(1-cyclopropyl-1H-pyrazol-4-yl)-5-((3-fluorooxetan-3-yl)methoxy)-2-methyl-3,4-dihydroquinoline-1(2H)-carboxylate], for which the IC50 was 50 to 500 nM in assay [1] and 1 to 10 µM in assay [2].
On to `CC(=O)N1c2ccc(-c3cnn(C4CC4)c3)c(OCc3nc4ccccc4o3)c2CC[C@@H]1C` [I-481], for which the IC50 in assay [1] is not below 500 nM; in assay [2], not below 10 µM.
In the same order, the values of `COC(=O)N1c2ccc(-c3cnn(CC(C)(C)O)c3)c(OCCN(C)S(C)(=O)=O)c2CC[C@@H]1C` [I-472] are 50 to 500 nM and 1 to 10 µM.
In the case of `CC(=O)N1c2ccc(-c3cnn(C4CC4)c3)c(OCC(C)(F)F)c2CC[C@@H]1C` [I-37, (S)-1-(6-(1-cyclopropyl-1H-pyrazol-4-yl)-5-(2,2-difluoropropoxy)-2-methyl-3,4-dihydroquinolin-1(2H)-yl)ethanone], the IC50 in assay [1] lay in the range of 50 to 500 nM; in assay [2] it was 1 to 10 µM.
For `CC(=O)N1c2ccc(-c3ccc(C(=O)N4CCOCC4)cc3)c(OCC(=O)N(C)C)c2CC[C@@H]1C` [I-497], in that order: 50 to 500 nM and 1 to 10 µM.
For `COC(=O)N1c2ccc(-c3cnn(C4CC4)c3)c(OC(C)(C)C(N)=O)c2CC[C@@H]1C` [I-18, (S)-methyl 5-(1-amino-2-methyl-1-oxopropan-2-yloxy)-6-(1-cyclopropyl-1H-pyrazol-4-yl)-2-methyl-3,4-dihydroquinoline-1(2H)-carboxylate], in that order: 50 to 500 nM and 1 to 10 µM.
On to `CC(=O)N1c2ccc(-c3cnn(CCS(C)(=O)=O)c3)c(OC[C@H]3CCC(=O)N3)c2CC[C@@H]1C` [I-432], for which the IC50 in assay [1] was 50 to 500 nM; in assay [2], 1 to 10 µM.
As for `CC(=O)N1c2ccc(-c3cnn(C4CC4)c3)c(OCC3CNC3)c2CC[C@@H]1C` [I-52, (S)-1-(5-(azetidin-3-ylmethoxy)-6-(1-cyclopropyl-1H-pyrazol-4-yl)-2-methyl-3,4-dihydroquinolin-1 (2H)-yl)ethanone], the IC50 was not below 500 nM in assay [1] and not below 10 µM in assay [2].
In the same order, the values of `CC(=O)N1c2ccc(-c3ccc(NS(C)(=O)=O)cc3)c(OCC(=O)N(C)C)c2CC[C@@H]1C` [I-495] are not below 500 nM and 1 to 10 µM.
In the same order, the values of `CCCOc1c(-c2ccc(C(=O)N3CCOCC3)cc2)ccc2c1CC[C@H](C)N2C(C)=O` [I-496] are 50 to 500 nM and 1 to 10 µM.
For `COC(=O)N1c2ccc(-c3cnn(CCO)c3)c(OCC(=O)N3CCCC3)c2CC[C@@H]1C` [I-465], in that order: 50 to 500 nM and 1 to 10 µM.
In the case of `CC(=O)N1c2ccc(-c3cnn(CCO)c3)c(OCC(=O)N(C)C)c2CC[C@@H]1C` [I-2, (S)-2-(1-acetyl-6-(1-(2-hydroxyethyl)-1H-pyrazol-4-yl)-2-methyl-1,2,3,4-tetrahydroquinolin-5-yloxy)-N,N-dimethylacetamide], the IC50 lay in the range of 50 to 500 nM in assay [1] and 1 to 10 µM in assay [2].
In the same order, the values of `CC(=O)N1c2ccc(-c3cnn(C4CC4)c3)c(OCc3ncc(C)o3)c2CC[C@@H]1C` [I-478] are 50 to 500 nM and 1 to 10 µM.
Regarding `CC(=O)N1c2cccc(Oc3ccccc3)c2CCC1C` (racemic) [I-112, rac-1-(2-methyl-5-phenoxy-3,4-dihydroquinolin-1(2H)-yl)ethanone], the IC50 is 50 to 500 nM in assay [1] and not below 10 µM in assay [2].
As for `CC(=O)N1c2ccc(-c3cnn(CCO)c3)c(Oc3nc(C)cc(C)n3)c2CC[C@@H]1C` [I-544], the IC50 was in the range of 50 to 500 nM in assay [1] and 1 to 10 µM in assay [2].
With `COC(=O)N1c2ccc(-c3cnn(C4CCNCC4)c3)c(OCCN(C)S(C)(=O)=O)c2CC[C@@H]1C` [I-474], the half-maximal inhibitory concentration (IC50) in assay [1] is 50 to 500 nM; in assay [2] it was 1 to 10 µM.
In the same order, the values of `CC(=O)N1c2ccc(-c3cnn(C4CC4)c3)c(OCC#N)c2CC[C@@H]1C` [I-397] are 50 to 500 nM and 1 to 10 µM.
Take `CC(=O)N1c2ccc(-c3cnn(C4COC4)c3)c(OCCNS(C)(=O)=O)c2CC[C@@H]1C` [I-380]: the IC50 was 50 to 500 nM in assay [1] and 1 to 10 µM in assay [2].
For the compound `CC(=O)N1c2ccc(-c3cnn(C4CCNCC4)c3)c(OCCN(C)S(C)(=O)=O)c2CC[C@@H]1C` [I-439], the concentration for half-maximal inhibition (IC50) was 50 to 500 nM in assay [1] and 1 to 10 µM in assay [2].
For the compound `COC(=O)N1c2ccc(-c3cnn(CCO)c3)c(OC[C@H]3CCC(=O)N3)c2CC[C@@H]1C` [I-469], the IC50 in assay [1] is 50 to 500 nM; in assay [2], 1 to 10 µM.
With `CCCOc1c(-c2ccc(N3CCCS3(=O)=O)cc2)ccc2c1CC[C@H](C)N2C(C)=O` [I-498], the IC50 lay within 50 to 500 nM in assay [1] and 1 to 10 µM in assay [2].
For `CC(=O)N1c2ccc(-c3cnn(C4COC4)c3)c(OC[C@H]3CCNC3)c2CC[C@@H]1C` [I-601], in that order: 50 to 500 nM and 1 to 10 µM.
For `COC(=O)N1c2ccc(-c3cnn(C4CC4)c3)c(OC3CN(C(=O)OC(C)(C)C)C3)c2CC[C@@H]1C` [I-58, (S)-methyl 5-(1-(tert-butoxycarbonyl)azetidin-3-yloxy)-6-(1-cyclopropyl-1H-pyrazol-4-yl)-2-methyl-3,4-dihydroquinoline-1(2H)-carboxylate], in that order: not below 500 nM and not below 10 µM.
For `CCNC(=O)COc1c(-c2cnn(C3CC3)c2)ccc2c1CC[C@H](C)N2C(=O)OC` [I-21, (S)-methyl 6-(1-cyclopropyl-1H-pyrazol-4-yl)-5-(2-(ethylamino)-2-oxoethoxy)-2-methyl-3,4-dihydroquinoline-1(2H)-carboxylate], in that order: 50 to 500 nM and not below 10 µM.
With `COC(=O)N1c2ccc(-c3cnn(C4CC4)c3)c(OC3CC(F)(F)C3)c2CC[C@@H]1C` [I-33, (S)-methyl 6-(1-cyclopropyl-1H-pyrazol-4-yl)-5-(3,3-difluorocyclobutoxy)-2-methyl-3,4-dihydroquinoline-1(2H)-carboxylate], the IC50 in assay [1] was not below 500 nM; in assay [2], 1 to 10 µM.
